Reference: patent EP0243192B1, “Antiviral 8-Phenylxanthines” (THE WELLCOME FOUNDATION LIMITED, priority 1986, dated 1987)

What was measured:
[1] = test system: HIV; assay: in-vitro anti-HIV assay system as described in Mitsuya et al.; format: cell-based; details: for effective concentration: concentration of the drug at which effects were seen (3µM to 30µM)
Procedure: The anti-HIV activity of various compounds was tested using an in-vitro assay system as described in H Mitsuya et al; (Proc Natl. Acad.Sci. USA Vol 82 pp 7096-7100, October 1985).
From the information obtained the 50% effective dose (ED₅₀ value) was estimated and the results expressed as active (+) or very active (++).

[2] = standard LD50 test, intraperitoneal administration to mice; details: mouse, in vivo, ip, read-out: LD₅₀
Procedure: The toxicity of a representative number of compounds of the present invention was determined by using the standard LD₅₀ test.

| SMILES | effective concentration [1] [µM] | LD50 [2] [mg/kg] | anti-HIV activity ([1]; statement in words) |
| --- | --- | --- | --- |
| CCCn1c(=O)n(Cc2ccccc2)c(=O)c2nc(-c3ccc(/C=C/C(=O)O)cc3)[nH]c21 [(E)-4-(1-Benzyl-1,2,3,6-tetrahydro-2,6-dioxo-3-propyl-9H-purin-8-yl)cinnamic acid] | 30 | – | – |
| Cn1c(=O)[nH]c(=O)c2nc(-c3ccc(/C=C/C(=O)O)cc3)[nH]c21 [(E)-4-(1,2,3,6-tetrahydro-3-methyl-2,6-dioxo-9H-purin-8-yl)cinnamic acid] | – | > 500 | – |
| CC(C)Cn1c(=O)[nH]c(=O)c2nc(-c3ccc(/C=C/C(=O)O)cc3)[nH]c21 [(E)-4-(1,2,3,6-tetrahydro-3-isobutyl-2,6-dioxo-9H-purin-8-yl)cinnamic acid] | – | > 100 | – |
| CCCn1c(=O)c2nc(-c3ccc(/C=C/C(=O)O)cc3)[nH]c2n(Cc2ccccc2)c1=O [(E)-4-(3-Benzyl-1,2,3,6-tetrahydro-2,6-dioxo-1-propyl-9H-purin-8-yl)cinnamic acid] | 30 | – | – |
| CC(C)Cn1c(=O)n(C)c(=O)c2nc(-c3ccc(/C=C/C(=O)O)cc3)[nH]c21 [(E)-4-(1,2,3,6-tetrahydro-3-isobutyl-1-methyl-2,6-dioxo-9H-purin-8-yl)cinnamic acid] | – | > 100 | – |
| CCCCn1c(=O)n(C)c(=O)c2nc(-c3ccc(/C=C/C(=O)O)cc3)[nH]c21 [(E)-4-(3-butyl-1,2,3,6-tetrahydro-1-methyl-2,6-dioxo-9H-purin-8-yl)cinnamic acid] | – | > 100 | – |
| CCCCn1c(=O)c2nc(-c3ccc(/C=C/C(=O)O)cc3)[nH]c2n(CCCC)c1=O [(E)-4-(1,3-dibutyl-1,2,3,6-tetrahydro-2,6-dioxo-9H-purin-8-yl)cinnamic acid] | 30 | > 100 | – |
| O=C(O)/C=C/c1ccc(-c2nc3c(=O)n(Cc4ccccc4)c(=O)n(Cc4ccccc4)c3[nH]2)cc1 [(E)-4-(1,3-dibenzyl-1,2,3,6-tetrahydro-2,6-dioxo-9H-purin-8-yl)cinnamic acid] | 3 to 15 | – | particularly potent |
| Cn1c(=O)c2nc(-c3ccc(/C=C/C(=O)O)cc3)[nH]c2n(Cc2ccccc2)c1=O [(E)-4-(3-benzyl-1,2,3,6-tetrahydro-1-methyl-2,6-dioxo-9H-purin-8-yl)cinnamic acid] | – | > 100 | – |
